Consider 21 compounds from patent US8431704B2, “Quinoline or isoquinoline substituted P2X7 antagonists” (Janssen Pharmaceutica NV, priority 2008, dated 2013).

SMILES strings stand for the structures.

What is called melting point is the temperature, or range, at which the solid turns liquid.

The target of one data set is T1, hP2X7 (Homo sapiens, UniProt Q99572).
T1 construct: expressed in transfected cells; host or cells: 1321N1 astrocytoma cells
T1 sequence (Q99572 1-595): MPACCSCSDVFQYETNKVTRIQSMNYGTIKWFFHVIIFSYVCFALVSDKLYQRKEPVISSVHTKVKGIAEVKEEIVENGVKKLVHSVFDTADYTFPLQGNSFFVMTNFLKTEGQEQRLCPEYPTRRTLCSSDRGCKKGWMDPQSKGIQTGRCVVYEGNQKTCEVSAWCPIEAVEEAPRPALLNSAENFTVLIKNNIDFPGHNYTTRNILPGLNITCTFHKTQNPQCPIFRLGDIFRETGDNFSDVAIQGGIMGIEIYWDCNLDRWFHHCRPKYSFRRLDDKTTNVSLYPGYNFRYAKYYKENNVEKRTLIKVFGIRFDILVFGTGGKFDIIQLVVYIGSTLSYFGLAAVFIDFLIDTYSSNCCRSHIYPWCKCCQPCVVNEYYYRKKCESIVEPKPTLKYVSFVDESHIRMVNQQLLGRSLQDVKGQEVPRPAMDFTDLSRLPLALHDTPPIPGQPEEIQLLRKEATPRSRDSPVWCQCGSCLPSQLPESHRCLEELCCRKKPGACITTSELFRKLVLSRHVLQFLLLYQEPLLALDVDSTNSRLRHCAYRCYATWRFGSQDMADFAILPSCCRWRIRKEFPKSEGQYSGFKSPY
Put plainly: P2X7 antagonism: ligand-induced Ca2+ flux in 1321N1 astrocytoma cells overexpressing hP2X7. The format is cell-based. The conditions noted are these: pIC50 = -log(IC50), read-out: hP2RX7pIC50 (mean pIC50 values) (converted). The procedure, abridged:
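Intracellular Ca2+ tracked with a quenched Ca2+-sensitive fluorescent dye kit (excitation 488 nm, emission 510-560 nm) in 1321N1 cells, before and after agonist addition in presence of antagonist. Effects expressed as % control and IC50.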
(In general: A change in cytosolic calcium serves as a functional read-out for many receptors and channels.)

Another data set has as its target T2, P2X7 (Homo sapiens, UniProt Q99572).
T2 construct: endogenous in cells; host or cells: THP-1 human monocytic cell line
T2 sequence (Q99572 1-595): T1 sequence (Q99572 1-595)
Briefly: THP-1 YoPro uptake assay (BzATP-stimulated Yo-Pro-1 uptake). The format is cell-based. The following applies: Table F-10, THP-1 cells, read-out: mean pIC50 values for P2X7 antagonism (converted).

The compound `O=C(NCC(c1cnc(C(F)(F)F)nc1)N1CCC(F)(F)CC1)c1cccc2ncccc12` (single isomer, unassigned) [Compound 46] registered a melting point of 217.7 °C. The IC50 at hP2X7 is 27.5 nM. The matching figures for `O=C(NCC(c1ccc(Cl)nc1)N1CCC(F)(F)CC1)c1cccc2ncccc12` (stereo not shown) [Compound 7]: 187.3 °C and 25.1 nM. In turn, `O=C(NCC(c1ccc(C(F)(F)F)nc1)N1CCNCC1)c1cccc2ncccc12` (stereo not shown) [Compound 8] yielded a melting point of 198 °C. Further, at hP2X7, the IC50 is above 10000 nM. Regarding `O=C(NCC(c1ccc(C(F)(F)F)nc1)N1CCC(O)(c2ccc(Cl)cc2)CC1)c1cccc2ncccc12` (stereo not shown) [Compound 29], the melting point was 155 to 162.2 °C. For the same compound, the IC50 at hP2X7 is above 10000 nM.

`NC(=O)C1CCN(C(CNC(=O)c2cccc3ncccc23)c2ccc(C(F)(F)F)nc2)CC1` (stereo not shown) [Compound 34]: the melting point was 253.7 to 254.3 °C. The IC50 at hP2X7 is above 10000 nM. Turning to `O=C(NCC(c1cnc(C(F)(F)F)nc1)N1CCCCC1)c1cccc2ncccc12` (stereo not shown) [Compound 35], the melting point is 183.6 °C. Also, the IC50 at hP2X7 is 21.4 nM. For the compound `O=C(NCC(c1cnc(C(F)(F)F)nc1)N1CCC(F)(F)CC1)c1cccc2nc(NCCO)ccc12` (stereo not shown) [Compound 39], the melting point is 125.3 °C. Further, the IC50 at hP2X7 was 33.9 nM.

As for `O=C(NCC(c1cnc(C(F)(F)F)nc1)N1CCC(F)(F)CC1)c1cccc2nc(O)ccc12` (stereo not shown) [Compound 77], the melting point came out at 206.9 °C. Further, the IC50 at hP2X7 was 224 nM. Turning to `O=C(NCC(c1cnc(C(F)(F)F)nc1)N1CCC(F)(F)CC1)c1cccc2nc(N3CCNCC3)ccc12` (stereo not shown) [Compound 78], the melting point turned out to be 202.9 °C. For the same compound, the IC50 at hP2X7 is 25.7 nM. The corresponding values for `Cc1ncc(C(CNC(=O)c2cccc3nc(N4CCOCC4)ccc23)N2CCC(F)(F)CC2)cn1` (stereo not shown) [Compound 96] are 160 °C and 47.9 nM. The corresponding values for `O=C(NCC(c1cnc(C(F)(F)F)nc1)N1CCOCC1)c1cccc2nc(N3CCNCC3)ccc12` (stereo not shown) [Compound 102] are 234.3 °C and 72.4 nM. Compound `CC(C)(C)OC(=O)N1CCN(c2ccc3c(C(=O)NCC(c4cnc(C(F)(F)F)nc4)N4CCCC(F)(F)C4)cccc3n2)CC1` (stereo not shown) [Compound 106] had a melting point of 159.7 °C. Moreover, the IC50 at hP2X7 was 138 nM.

Compound `CC(C)N1CCN(c2ccc3c(C(=O)NCC(c4cnc(C(F)(F)F)nc4)N4CCC(F)(F)CC4)cccc3n2)CC1` (stereo not shown) [Compound 134] showed a melting point of 236.3 °C. With `CC1CN(c2ccc3c(C(=O)NCC(c4cnc(C(F)(F)F)nc4)N4CCC(F)(F)CC4)cccc3n2)CC(C)O1` (stereo not shown) [Compound 140], the melting point was 191.5 °C. The IC50 on hP2X7 was 91.2 nM. As to `N[C@H]1CCN(c2ccc3c(C(=O)NCC(c4cnc(C(F)(F)F)nc4)N4CCOCC4)c(Cl)ccc3n2)C1` (stereo partly shown) [Compound 563], at P2X7, the IC50 is 0.851 nM. For the compound `O=C(NCC(c1cnc(C(F)(F)F)nc1)N1CCOCC1)c1c(Cl)ccc2nc(N3C[C@@H]4CCCN[C@@H]4C3)ccc12` (stereo partly shown) [Compound 564], at P2X7, the IC50 was 7.41 nM. As for `O=C(NCC(c1cnc(C(F)(F)F)nc1)N1CCOCC1)c1c(Cl)ccc2nc(N3CC4CNC4C3)ccc12` (stereo not shown) [Compound 565], the IC50 at P2X7 is 2.57 nM. For `CSc1ncc(C(CNC(=O)c2c(Cl)ccc3ncccc23)N2CCC(F)(F)CC2)cn1` (stereo not shown) [Compound 582, 6-chloro-quinoline-5-carboxylic acid [2-(4,4-difluoro-piperidin-1-yl)-2-(2-methylsulfanyl-pyrimidin-5-yl)-ethyl]-amide], the IC50 at P2X7 is 10.7 nM.

`O=C(NCC(c1cnc(C(F)(F)F)nc1)N1CCC(F)(F)CC1)c1c(Cl)ccc2nc(O)ccc12` (stereo not shown) [Compound 593]: the IC50 on P2X7 was 112 nM. Take `Nc1ccc2c(C(=O)NCC(c3cnc(C(F)(F)F)nc3)N3CCC(F)(F)CC3)c(Cl)ccc2n1` (stereo not shown) [Compound 596]: at P2X7, the IC50 was 3.55 nM.

`O=C(NCC(c1cnc(C(F)(F)F)nc1)N1CCOCC1)c1c(F)ccc2ncccc12` (stereo not shown) [Compound 609]: the IC50 on P2X7 is 33.1 nM.
